Reference: paper PMC8623398, “Investigation of the Mechanisms of Cytotoxic Activity of 1,3-Disubstituted Thiourea Derivatives” (Pharmaceuticals, 2021)
Several values for one entry are separate records, joined by “and”; a condition that tells them apart may be missing. Equal values may be shown once.

Key:
Type in all cases: cell-based, human
[1] = system: IL-6 level, PC3 cells; test: IL-6 level ELISA, PC3; conditions: PC3, 72 h; for reduction of IL-6 level: IC50 concentration, vs control; for IL-6 Concentration: compound at IC50 concentration, ELISA
Description: (§1) Because of the low secretion of IL-6 by leukemic cells compared to solid tumors, and in addition to the lack of IL-6 receptors in K-562 cells, studies of the effect of derivatives 1–3, 8, and 9 on the inhibition of IL-6 release were carried out on primary and secondary solid tumor cells (SW480, SW620, and PC3). A remarkable inhibition of the IL-6 level was denoted for both colon cancer cell lines. Compound 2, identified as the strongest inhibitor, reduced the interleukin level by 54% (in SW480 cells) and 63% (SW620 cells). A significant effect was also observed in these cells for its structural isomer 3 (39% and 23% of inhibition, respectively). Additionally, compound 3 considerably affected the IL-6 level produced by PC3 cells, and reduced it by 33%. Similarly, the treatment with derivative 1 was effective for both colon cancer cells. In its presence, IL-6 release decreased by 28–36%, as compared to controls. For monosubstituted derivatives 8 and 9, the observed IL-6-reducing influence was weaker. They both inhibited IL-6 secretion in SW480 and SW620 cell lines by 25–32%. In contrast to compound 9, thiourea 8 additionally diminished the cytokine level in PC3 cells by 26%.
(§2) The IL-6 concentration in all studied cancer cells and normal HaCaT cell lines was measured by an ELISA kit (Diaclon SAS Besancon CEDEX, Besançon, France). […] IL-6 in cell culture supernatant was measured using the enzyme-linked immunosorbent assay in accordance with the manufacturer’s protocol.

[2] = system: PC3 cells; test: Trypan blue assay, PC3; conditions: PC3, 72 h; for Cell Number × 10^5 / Viability (%): compound at IC50 concentration; for reduction in live cell number: IC50 concentration, vs control
Description: (§3) In order to estimate the tumor and normal cell population density and their viability after treatment with compounds 1–3, 8, and 9, the trypan blue dye exclusion assay was performed. The live cell number of all cancerous cells incubated for 72 h with the studied thioureas was considerably lower in comparison with the controls (Table 2; Figure S1A). The highest reduction in cell amount was denoted for both colon SW480 and SW620 cells treated with the dichlorophenyl derivative 2, and it accounted for 93%. […] Similarly, a noticeable decline in both colon cancer cell populations was observed after treatment with the ortho-substituted compound 8. The number of live cells equaled 12% and 18%, respectively, as compared to controls. This thiourea also led to a reduction of PC3 cells of 38%, and leukemia K-562 cell lines of 27%. The number of SW620 and PC3 cells decreased by 72% and 63% in the presence of para-substituted compound 9. However, the reducing influence of this thiourea on the number of other cancerous cells was at the level of 21–32%. […] A significant effect on the other studied pathological cells was also noticed and accounted for 32–46%. Furthermore, the derivative 3 reduced the amount of live cancer cells by 32–59%, of which its decreasing impact on colon cancer cells was the greatest.
(§4) The live cell count was assessed by the trypan blue exclusion dye assay using an automated cell counter (CountessTM Invitrogen, Waltham, MA, USA). Untreated cells were used as the control.

[3] = system: IL-6 level, SW480 cells; test: IL-6 level ELISA, SW480; conditions: SW480, 72 h; for reduction (inhibition) of IL-6 level: IC50 concentration, vs control; for IL-6 Concentration: compound at IC50 concentration, ELISA
Description: as §1, §2

[4] = Annexin V-FITC/PI flow cytometry, HaCaT; parameters: viability at 72 h: concentration or dose not given beside the values; conditions: human, HaCaT cells (normal keratinocytes), representative dot plot, Figure 4E, read-out: LL quadrant, viable cells
Description: (§5) To estimate the mechanism of anticancer activity of the selected compounds 1–3, 8, and 9, their effect on both early and late apoptosis was evaluated by flow cytometry analysis. […] Additionally, visible late apoptosis-inducing properties in these cell lines were denoted for the compound 9 (47% ± 3.0%), which was twice as strong towards the colon tumor cells mentioned above. The apoptotic properties of analogs 3 and 8 in K-562 cells varied from 30% ± 1.6% to 33% ± 2.3%. […] Whereas the apoptosis-generating influence of derivatives 2 and 3 on normal keratinocytes was higher (29% and 23%), their selectivity measured by MTT methods is favorable. The obtained results are in agreement with the IC50 values assigned to pathological cancer cell lines. The cells were cultured and harvested under the conditions described in Section 3.2.1. […] The effect of these compounds on the process of early and late apoptosis and necrosis was determined as described previously by dual staining with Annexin V:FITC and propidium iodide, according to the manufacturer’s protocol (Becton Dickinson). The cells that were Annexin V:FITC positive and PI negative were identified as early apoptotic, and Annexin V:FITC and PI positive as late apoptotic or necrotic.

[5] = system: K-562 cells; test: MTT assay, K562; conditions: 50% growth inhibition
Description: As a first step in assessing their cytotoxic properties, all thioureas of the series were assayed against four human carcinoma cell lines, such as SW480 (primary colon cancer), SW620 (metastatic colon cancer), PC3 (metastatic prostate cancer), and K-562 (chronic myelogenous leukemia), as well as against the normal cell line HaCaT (immortalized human keratinocytes). Table 1 lists the compound concentrations that produced 50% of growth inhibition (IC50, μM), generated by the MTT method, in comparison with two commonly used chemotherapeutic agents, doxorubicin and cisplatin.
The human primary (SW480), metastatic (SW620) colon cancer, metastatic prostate cancer (PC3), chronic myelogenous leukemia (K-562), and human immortal keratinocyte (HaCaT) cell lines were purchased from the American Type Culture Collection (ATCC, Rockville, MD, USA). The cells were cultured in medium according to protocols (MEM for SW480 and SW620, RPMI 1640 for PC3 and K-562, and DMEM for HaCaT cells), supplemented with 10% FBS, penicillin (100 U/mL) and streptomycin (100 μg/mL), and cultured in a 37 °C/5% CO2 humidified incubator. The cells were cultured until appropriate confluence was achieved (80–90%). Next, they were harvested by treatment with 0.25% trypsin (Gibco Life Technologies, Waltham, MA, USA) excluding the non-adherent K-562 cell line and used for studies.
Cells without the studied compounds in medium were used as a control.
The cell viability was assessed by determination of MTT salt [3-(4,5-dimethylthiazol-2-yl)-2,5-diphenyltetrazoliumbromide] conversion by mitochondrial dehydrogenase. The MTT assay was performed as previously described. Alternatively, non-adherent leukemic cells were centrifuged in a microplate centrifuge (400× g, 5 min) during the collection stages. Experiments were repeated three times. Cell viability was presented as a percent of MTT reduction in the treated cells versus the control cells. The number of viable cells cultured without the studied compounds was assumed as 100%. A decreased relative MTT level indicated decreased cell viability. Thiourea compounds with the highest cytotoxic potential assessed by MTT determination (with the lowest IC50) were chosen for subsequent assessments of cytotoxicity mechanisms.

[6] = system: SW480 cells; test: Trypan blue assay, SW480; conditions: SW480, 72 h; for Cell Number × 10^5 / Viability (%): compound at IC50 concentration
Description: as §3, §4

[7] = system: K-562 cells; test: Annexin V-FITC/PI flow cytometry, K-562; conditions: K-562, 72 h, IC50 concentration
Description: as §5

SMILES	reduction of IL-6 level [1]	IL-6 Concentration [1]	Cell Number × 10^5 [2]	Viability (%) [2]	reduction (inhibition) of IL-6 level [3]	IL-6 Concentration [3]	viability at 72 h [4]	IC50 ([5]; Homo sapiens, K562, 72 h)	Cell Number × 10^5 [6]	Viability (%) [6]	cells in late apoptosis [7]	reduction in live cell number [2]	reduction in live cell number ([6]; IC50 concentration, vs control)	IC50 ([5]; 72 h)	number of live cells as compared to controls ([6]; IC50 concentration)
FC(F)(F)c1cccc(NC(S)=Nc2ccc(Cl)cc2Cl)c1 [Compound 3, 1-(2,4-dichlorophenyl)-3-[3-(trifluoromethyl)phenyl]thiourea]	33%	7.3 ± 0.06 pg/mL	1.8 ± 0.18 × 10^5	58 ± 1.20%	39%	4.8 ± 0.04 pg/mL	65.7%	54.3 ± 1.86 µM	1.5 ± 0.10 × 10^5	90 ± 1.30%	–	–	–	–	–
FC(F)(F)c1cccc(NC(=S)Nc2ccc(Cl)c(Cl)c2)c1 [Compound 2, 1-(3,4-dichlorophenyl)-3-[3-(trifluoromethyl)phenyl]thiourea]	–	9.1 ± 0.04 pg/mL	2.4 ± 0.16 × 10^5	93 ± 1.40%	54%	3.6 ± 0.02 pg/mL	57.6%	6.3 ± 1.28 µM	0.3 ± 0.35 × 10^5	45 ± 2.40%	73% and 73% ± 2.0%	69%	93%	–	–
FC(F)(F)c1cccc(NC(=S)Nc2ccc(Cl)cc2)c1 [Compound 9, 1-(4-chlorophenyl)-3-[3-(trifluoromethyl)phenyl]thiourea]	–	9.9 ± 0.03 pg/mL	1.2 ± 0.15 × 10^5	73 ± 1.99%	–	5.5 ± 0.02 pg/mL	79.5%	10.2 to 12.9 µM	2.5 ± 0.12 × 10^5	72 ± 2.25%	47% ± 3.0%	63%	–	10.2 ± 0.35 µM	–
FC(F)(F)c1ccc(NC(=S)Nc2cccc(C(F)(F)F)c2)cc1 [Compound 8, 1-[3-(trifluoromethyl)phenyl]-3-[4-(trifluoromethyl)phenyl]thiourea]	26%	8.1 ± 0.08 pg/mL	2.1 ± 0.12 × 10^5	82 ± 1.10%	–	5.3 ± 0.01 pg/mL	70.1%	54.8 ± 0.24 µM	0.4 ± 0.15 × 10^5	90 ± 2.30%	–	38%	–	–	12%
Fc1ccc(NC(=S)Nc2cccc(C(F)(F)F)c2)cc1Cl [Compound 1, 1-(3-chloro-4-fluorophenyl)-3-[3-(trifluoromethyl)phenyl]thiourea]	–	9.6 ± 0.02 pg/mL	2.3 ± 0.15 × 10^5	93 ± 1.50%	–	5.7 ± 0.01 pg/mL	78.2%	6.8 ± 1.57 µM	2.0 ± 0.30 × 10^5	69 ± 1.30%	74% ± 3.8%	–	–	–	–
